According to PubChem BioAssay AID602483 (Southern Research Specialized Biocontainment Screening …, 2012):
Active and inactive are the calls of the source. How the calls were made is not given here.

Key:
[1] = HEp-2 cell cytotoxicity, dose response, cytotoxicity control, set 1 (AID 602483); details: HEp-2 cell viability, cytotoxicity; at 50 µM (top of the series)
[2] = test system: HEp-2 cell viability, cytotoxicity; experiment: as above

SMILES | viability [1] | CC50 [2] [µM]
CN1CCN(Cc2nc3ccc([N+](=O)[O-])cc3c(=O)n2-c2ccccc2F)CC1 | 70.1% (inactive) | 
CN(C(=O)Cc1cccs1)c1nc2c(s1)CCCC2 |  | 5.67
CCN1CCN(Cc2nc3ccc([N+](=O)[O-])cc3c(=O)n2-c2ccccc2F)CC1 | 72.6% (inactive) | 
